Earlier results on one compound are cited in US20200206299A1, “INHIBITORS OF BETA-ARRESTIN-NEUROKININ 1 RECEPTOR INTERACTIONS FOR THE TREATMENT OF PAIN” (priority 2016, published 2020).

The data set relates to capsaicin-evoked hyperalgesia. To be noted: intrathecal MEK inhibitor; Ji et al. 2002 is cited.

In the case of `N#CC(=C(/N)Sc1ccccc1N)/C(C#N)=C(\N)Sc1ccccc1N` [U0126], the capsaicin-evoked hyperalgesia result is on record as “inhibited”.
